In patent publication US20240307485A1, “WS635 USES THEREOF IN MEDICINE” (WATERSTONE PHARMACEUTICALS (WUHAN) CO., LTD., priority 2021, published 2024):
“Also recorded” adds a separate entry of the source.

Experiments:
[1] = Toxicity test of repeated oral administration for 9 days in rats; conditions: rat, in vivo, read-out: NOAEL (No Observed Adverse Effect Level) dose
[2] = test system: wound healing model of SD rats; experiment: Skin wound healing model in SD rats (full-thickness circular skin wound, 2 cm diameter); assay type: in vivo; conditions: for wound area compared with the model group: once a day, WS635 oral 52.8 mg/kg, rb-bFGF external 262.5 IU/cm2, P<0.05, P<0.01; for wound healing rate over the administration cycle: once a day for 7 days, time course
Protocol: Eighteen 6-week-old male SD rats were randomly divided into 3 groups: model group, test article group and positive control group, with 6 rats in each group. Skin wound surgery was performed after anesthesia, and oral administration was started 2 h after skin wound formation. All rats were raised in a single cage. […]. The surgical details were as follows: All animals were anesthetized with 10% chloral hydrate solution (3 mL/kg) by intraperitoneal injection, their backs were depatured with pet shaving knives, and a circular mark with a diameter of 2 cm was made. After the skin was disinfected with alcohol, the full layer of skin was removed with surgical scissors along the marking line, and the wound surface was pressed to stop bleeding. The model group was orally given 10% DMSO corn oil, the test group was orally given WS635 (corn oil dissolved in 10% DMSO) at 52.8 mg/kg, and the positive control group was given 262.5 IU/cm2 (62.5 μL/cm^2) recombinant bovine basic fibroblast growth factor (rb-bFGF) external solution, once a day for 7 days. Digital photos were taken of the wound of each rat under the same conditions. The wound was recorded with plastic transparent paper, and the wound area was scanned by image J software after the wound was recorded with plastic transparent paper. Wound healing rate was calculated according to wound area (%)=(area after administration−area before administration)/area before administration 100%.

[3] = test system: angiogenesis; experiment: Angiogenesis in rats; assay type: in vivo

C/C=C/C[C@@H](C)[C@@H](O)[C@H]1C(=O)N[C@@H](CC)C(=O)N(C)[C@H](SCCN(C)C)C(=O)N(C)[C@@H](CC(C)(C)O)C(=O)N[C@@H](C(C)C)C(=O)N(C)[C@@H](CC(C)C)C(=O)N[C@@H](C)C(=O)N[C@H](C)C(=O)N(C)[C@@H](CC(C)C)C(=O)N(C)[C@@H](CC(C)C)C(=O)N(C)[C@@H](C(C)C)C(=O)N1C [WS635, (3S,6S,9S,12R,15S,18S,21S,24S,27R,30S,33S)-27-((2-(dimethylamino)ethyl)thio)-30-ethyl-3 3-((1R,2R,E)-1-hydroxy-2-methylhex-4-en-1-yl)-24-(2-hydroxy-2-methylpropyl)-6,9,18-triisobutyl-3,21-diisopropyl-1,4,7,10,12,15,19,25,28-nonamethyl-1,4,7,10,13,16,19,22,25,28,31-undecaazacyclotritriacontan-2,5,8,11,14,17,20,23,26,29,32-undecaone]
NOAEL at 9 days [1]: 80 mg/kg/day | wound area compared with the model group ([2]; Day 3): decreased significantly | wound area compared with the model group ([2]; Day 7): decreased significantly | wound healing effect of WS635 compared with rb-bFGF ([2]; WS635 oral 52.8 mg/kg vs rb-bFGF 262.5 IU/cm2, P>0.05, 52.8 mg/kg): equivalent to rb-bFGF; also recorded: no significant difference | wound healing rate over the administration cycle [2]: enhances wound healing rate in a time-dependent manner; also recorded: increased with the extension of administration time | wound healing (overall conclusion) ([2]; oral administration, SD rats): significantly promote wound healing | angiogenesis [3]: significantly promote angiogenesis

rb-bFGF: recombinant bovine basic fibroblast growth factor (rb-bFGF) external solution, positive control
wound area compared with the model group ([2]; Day 3): decreased significantly | wound area compared with the model group ([2]; Day 7): decreased significantly | wound healing rate over the administration cycle [2]: increased with the extension of administration time
